Read-outs that look alike come from different tables or passages of the source.
What was measured:
Type in all cases: in vivo
[1] = system: piemarker; experiment: Determination of herbicidal activity, post-emergence stem and leaf spray, piemarker; conditions: for Herbicidal activity for Piemarker, control effect %: Table 4 parallel comparison; for pest or weed control at 150 g/ha: post-emergence, read-out: control effects on piemarker
Description: (§1) Seeds of broadleaf weeds (zinnia and piemarker) or grassy weeds (green bristlegrass and barnyard grass) were respectively sown in a paper cup having a diameter of 7 cm and containing nutrient soil; after sowing, the seeds were covered with 1 cm of soil; the soil was pressed and watered, and then the seeds were cultivated in a greenhouse according to a conventional method; and stems and leaves were sprayed after 2-3 leaf stage of the weeds.
(§2) After the original medicinal acetone was dissolved, the test requires to use 1‰ of Tween 80 to stand in running water to prepare the solution to be tested with a required concentration. According to the design dose of the test, spray treatment was carried out on a track-type crop sprayer (designed and produced by British Engineer Research Ltd.) (spray pressure is 1.95 kg/cm^2, spray volume is 500 L/hm^2 and track speed is 1.48 km/h). The test was repeated for three times. The test material was treated and then placed in an operation hall. The medicinal liquid was naturally dried in the shade, and then was placed in a greenhouse and managed according to the conventional method. The response of the weeds to the drug was observed and recorded. After treatment, the control effects of the test drug on the weeds were visually inspected regularly, expressed by 0-100%. “0” represents no control effect and “100%” represents complete killing.

[2] = system: green bristlegrass; experiment: Determination of herbicidal activity, post-emergence stem and leaf spray, green bristlegrass; conditions: for Herbicidal activity for Green Bristlegrass, control effect %: Table 5 parallel comparison
Description: as §1, §2

[3] = system: barnyard grass; experiment: Determination of herbicidal activity, post-emergence stem and leaf spray, barnyard grass; conditions: for Herbicidal activity for Barnyard Grass, control effect %: Table 6 parallel comparison
Description: as §1, §2

[4] = system: zinnia; experiment: Determination of herbicidal activity, post-emergence stem and leaf spray, zinnia; conditions: for control effects on zinnia: 150 g a.i./hm^2, after emergence, visual 0-100%; for Herbicidal activity for Zinnia, control effect %: Table 3 parallel comparison
Description: as §1, §2

[5] = Table 2, 9.375 g a.i./hm^2, after emergence
[6] = Table 2, 37.5 g a.i./hm^2, after emergence
[7] = 2.34 g a.i./hm^2, after emergence
[8] = 9.375 g a.i./hm^2, after emergence
[9] = 150 g a.i./hm^2, after emergence, visual 0-100%
[10] = 37.5 g a.i./hm^2, after emergence

Structure (SMILES)	Piemarker, control effect % [1, 5] [%]	Piemarker, control effect % [1, 6] [%]	Herbicidal activity for Piemarker, control effect % [1, 7] [%]	Herbicidal activity for Piemarker, control effect % [1, 8] [%]	pest or weed control at 150 g/ha [1, 9] [%]	Green Bristlegrass, control effect % [2, 5] [%]	Green Bristlegrass, control effect % [2, 6] [%]	Herbicidal activity for Green Bristlegrass, control effect % [2, 8] [%]	Herbicidal activity for Green Bristlegrass, control effect % [2, 10] [%]	Barnyard Grass, control effect % [3, 5] [%]	Barnyard Grass, control effect % [3, 6] [%]	Herbicidal activity for Barnyard Grass, control effect % [3, 8] [%]	Herbicidal activity for Barnyard Grass, control effect % [3, 10] [%]	control effects on zinnia [4] [%]	Zinnia, control effect % [4, 5] [%]	Zinnia, control effect % [4, 6] [%]	Herbicidal activity for Zinnia, control effect % [4, 7] [%]	Herbicidal activity for Zinnia, control effect % [4, 8] [%]	control effects on piemarker [1, 9] [%]	pest or weed control at 150 g/ha [1] [%]
CCOC(=O)C(C)OC(=O)c1cc(-n2c(=O)n(C)c(=S)n(C)c2=O)c(F)cc1Cl (racemic) [Compound 248, 2-chloro-4-fluoro-5-(3,5-dimethyl-2,6-dioxo-4-thio-1,3,5-triazine-1-yl) benzoic acid (1-ethoxycarbonyl)ethyl ester]	90	100	90	100	100	70	95	60	85	95	100	90	100	100	60	90	95	100	–	–
Cn1c(=S)n(C)c(=O)n(-c2cc(C(=O)OCC(=O)OCCCl)c(Cl)cc2F)c1=O [Compound 221]	–	–	85	100	–	–	–	80	90	–	–	98	100	100	–	–	85	100	100	–
Cn1c(=S)n(C)c(=O)n(-c2cc(C(=O)OCC(=O)OCCCCCl)c(Cl)cc2F)c1=O [Compound 225]	–	–	85	100	–	–	–	80	90	–	–	95	100	100	–	–	95	100	100	–
Cn1c(=S)n(C)c(=O)n(-c2cc(C(=O)OCC(=O)OCC3CC3)c(Cl)cc2F)c1=O [Compound 241, 2-chloro-4-fluoro-5-(3,5-dimethyl-2,6-dioxo-4-thio-1,3,5-triazine-1-yl)benzoic acid (cyclopropylmethoxycarbonyl) methyl ester]	–	–	98	100	100	–	–	80	100	–	–	95	98	100	–	–	100	100	–	–
Cn1c(=S)n(C)c(=O)n(-c2cc(C(=O)OCC(=O)OCC3CO3)c(Cl)cc2F)c1=O (centres unmarked) [Compound 245]	–	–	–	–	–	–	–	70	90	–	–	95	98	100	–	–	95	100	100	–
Cn1c(=S)n(C)c(=O)n(-c2cc(C(=O)OCC(=O)OCC3CCCO3)c(Cl)cc2F)c1=O (centres unmarked) [Compound 246]	–	–	–	–	–	–	–	80	90	–	–	95	98	100	–	–	95	95	100	–
CCOC(=O)[C@@H](C)OC(=O)c1cc(-n2c(=O)n(C)c(=S)n(C)c2=O)c(F)cc1Cl [Compound 249]	65	100	–	–	–	35	80	–	–	30	55	–	–	100	50	70	–	–	100	–
CC(OC(=O)c1cc(-n2c(=O)n(C)c(=S)n(C)c2=O)c(F)cc1Cl)C(=O)OC/C=C/Cl (centres unmarked) [Compound 281, (E)-2-chloro-4-fluoro-5-(3,5-dimethyl-2,6-dioxo-4-thio-1,3,5-triazine-1-yl)benzoic acid (1-(3-chloroallyloxycarbonyl))ethyl ester]	–	–	–	–	–	–	–	60	90	–	–	–	–	100	–	–	90	100	–	100
CC(OC(=O)c1cc(-n2c(=O)n(C)c(=S)n(C)c2=O)c(F)cc1Cl)C(=O)OCC=C(Cl)Cl (centres unmarked) [Compound 283]	–	–	–	–	–	–	–	50	85	–	–	–	–	100	–	–	100	100	100	–
CC#CCOC(=O)C(C)OC(=O)c1cc(-n2c(=O)n(C)c(=S)n(C)c2=O)c(F)cc1Cl (centres unmarked) [Compound 287]	–	–	–	–	–	–	–	50	70	–	–	–	–	100	–	–	80	100	100	–
CC(OC(=O)c1cc(-n2c(=O)n(C)c(=S)n(C)c2=O)c(F)cc1Cl)C(=O)OCC1CC1 (centres unmarked) [Compound 291]	–	–	85	100	–	–	–	–	–	–	–	90	100	100	–	–	85	100	100	–
C=CCOC(=O)[C@@H](C)Oc1cc(-n2c(=O)n(C)c(=S)n(C)c2=O)c(F)cc1Cl [KC2, reference compound]	–	–	–	–	–	–	–	20	50	–	–	75	90	–	–	–	–	–	–	–
